According to patent US6630495B1, “Fungicides” (priority 1999, dated 2003):

## O=[N+]([O-])c1ccccc1CC(=NO)NCc1ncc(C(F)(F)F)cc1Cl
  melting point: 122 to 126 °C

## CC(C#N)(NC(=O)c1c(Cl)cccc1Cl)c1ncc(C(F)(F)F)cc1Cl (centres unmarked) [Compound 110, N-[1-(3-Chloro-5-trifluoromethyl-2-pyridyl)-1-cyanoethyl]-2,6-dichlorobenzamide]
  melting point: 166 °C
